In PubChem BioAssay (NCI):
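Cells were grown in 96-well plates and exposed to each compound for 48 hours at five concentrations; endpoints were interpolated linearly between bracketing concentrations, or set to the highest concentration if not reached. GI50 = concentration required for 50% inhibition of growth. TGI: concentration producing complete growth inhibition.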

Legend:
Assay in all cases: inhibition of tumour cell growth, NCI panel, 48 h
[1] = tested on: 786-0 renal
[2] = tested on: A498 renal
[3] = tested on: A549 NSCLC
[4] = tested on: ACHN renal
[5] = tested on: CAKI-1 renal
[6] = tested on: CCRF-CEM leukemia
[7] = tested on: DLD-1 colon
[8] = tested on: DMS 114 small cell lung
[9] = tested on: DMS 273 small cell lung
[10] = tested on: EKVX NSCLC
[11] = tested on: HCC-2998 colon
[12] = tested on: HCT-116 colon
[13] = tested on: HCT-15 colon
[14] = tested on: HL-60(TB) leukemia
[15] = tested on: HOP-18 NSCLC
[16] = tested on: HOP-62 NSCLC
[17] = tested on: HOP-92 NSCLC
[18] = tested on: HT29 colon
[19] = tested on: IGROV1 ovarian
[20] = tested on: K-562 leukemia
[21] = tested on: KM12 colon
[22] = tested on: KM20L2 colon
[23] = tested on: LOX IMVI melanoma
[24] = tested on: LXFL 529 NSCLC
[25] = tested on: M14 melanoma
[26] = tested on: M19-MEL melanoma
[27] = tested on: MALME-3M melanoma
[28] = tested on: MOLT-4 leukemia
[29] = tested on: NCI-H226 lung
[30] = tested on: NCI-H23 lung
[31] = tested on: NCI-H460 lung
[32] = tested on: OVCAR-3 ovarian
[33] = tested on: OVCAR-4 ovarian
[34] = tested on: OVCAR-5 ovarian
[35] = tested on: OVCAR-8 ovarian
[36] = tested on: RPMI-8226 leukemia
[37] = tested on: RXF 393 renal
[38] = tested on: SF-268 CNS
[39] = tested on: SF-295 CNS
[40] = tested on: SF-539 CNS
[41] = tested on: SK-MEL-2 melanoma
[42] = tested on: SK-MEL-28 melanoma
[43] = tested on: SK-MEL-5 melanoma
[44] = tested on: SN12C renal
[45] = tested on: SNB-19 CNS
[46] = tested on: SNB-75 CNS
[47] = tested on: SNB-78 CNS
[48] = tested on: SR leukemia
[49] = tested on: SW-620 colon
[50] = tested on: TK-10 renal
[51] = tested on: UACC-257 melanoma
[52] = tested on: UACC-62 melanoma
[53] = tested on: UO-31 renal
[54] = tested on: XF 498 CNS
[55] = tested on: COLO 205 colon
[56] = tested on: NCI-H522 lung
[57] = tested on: SK-OV-3 ovarian

C/C(CCn1[nH]c(=O)ccc1=O)=N\N=C(N)N
TGI [1]: > 100 µM | TGI [2]: > 100 µM | TGI [3]: > 100 µM | TGI [4]: > 100 µM | TGI [5]: > 100 µM | TGI [6]: > 100 µM | TGI [7]: > 100 µM | TGI [8]: > 100 µM | TGI [9]: > 100 µM | TGI [10]: > 100 µM | TGI [11]: > 100 µM | TGI [12]: > 100 µM | TGI [13]: > 100 µM | TGI [14]: > 100 µM | TGI [15]: > 100 µM | TGI [16]: > 100 µM | TGI [17]: > 100 µM | TGI [18]: > 100 µM | TGI [19]: > 100 µM | TGI [20]: > 100 µM | TGI [21]: > 100 µM | TGI [22]: > 100 µM | TGI [23]: > 100 µM | TGI [24]: > 100 µM | TGI [25]: > 100 µM | TGI [26]: > 100 µM | TGI [27]: > 100 µM | TGI [28]: > 100 µM | TGI [29]: > 100 µM | TGI [30]: > 100 µM | TGI [31]: > 100 µM | TGI [32]: > 100 µM | TGI [33]: > 100 µM | TGI [34]: > 100 µM | TGI [35]: > 100 µM | TGI [36]: > 100 µM | TGI [37]: > 100 µM | TGI [38]: > 100 µM | TGI [39]: > 100 µM | TGI [40]: > 100 µM | TGI [41]: > 100 µM | TGI [42]: > 100 µM | TGI [43]: > 100 µM | TGI [44]: > 100 µM | TGI [45]: > 100 µM | TGI [46]: > 100 µM | TGI [47]: > 100 µM | TGI [48]: > 100 µM | TGI [49]: > 100 µM | TGI [50]: > 100 µM | TGI [51]: > 100 µM | TGI [52]: > 100 µM | TGI [53]: > 100 µM | TGI [54]: > 100 µM

[O-]c1ccccc1/C=N/c1nccs1.[O-]c1ccccc1/C=N/c1nccs1.[O]=[U+2]=[O]
GI50 [1]: 25 µM | TGI [1]: > 100 µM | GI50 [2]: 26.2 µM | TGI [2]: > 100 µM | GI50 [3]: > 100 µM | TGI [3]: > 100 µM | GI50 [4]: > 100 µM | TGI [4]: > 100 µM | GI50 [5]: 37.9 µM | TGI [5]: > 100 µM | GI50 [6]: > 100 µM | TGI [6]: > 100 µM | GI50 [55]: > 100 µM | TGI [55]: > 100 µM | GI50 [7]: 22.4 µM | TGI [7]: > 100 µM | GI50 [8]: 11.1 µM | TGI [8]: > 100 µM | GI50 [9]: 7.15 µM | TGI [9]: > 100 µM | GI50 [10]: > 100 µM | TGI [10]: > 100 µM | GI50 [11]: 75.1 µM | TGI [11]: > 100 µM | GI50 [12]: 11.5 µM | TGI [12]: > 100 µM | GI50 [13]: 22.2 µM | TGI [13]: > 100 µM | GI50 [14]: 35.5 µM | TGI [14]: > 100 µM | GI50 [15]: 5.75 µM | TGI [15]: > 100 µM | GI50 [16]: > 100 µM | TGI [16]: > 100 µM | GI50 [18]: > 100 µM | TGI [18]: > 100 µM | GI50 [19]: 42.4 µM | TGI [19]: > 100 µM | GI50 [20]: 57.1 µM | TGI [20]: > 100 µM | GI50 [21]: > 100 µM | TGI [21]: > 100 µM | GI50 [22]: > 100 µM | TGI [22]: > 100 µM | GI50 [23]: 25.7 µM | TGI [23]: > 100 µM | GI50 [24]: 29.1 µM | TGI [24]: > 100 µM | GI50 [25]: > 100 µM | TGI [25]: > 100 µM | GI50 [26]: > 100 µM | TGI [26]: > 100 µM | GI50 [27]: > 100 µM | TGI [27]: > 100 µM | GI50 [28]: 27.4 µM | TGI [28]: > 100 µM | GI50 [29]: > 100 µM | TGI [29]: > 100 µM | GI50 [30]: > 100 µM | TGI [30]: > 100 µM | GI50 [56]: 61.4 µM | TGI [56]: > 100 µM | GI50 [32]: > 100 µM | TGI [32]: > 100 µM | GI50 [33]: > 100 µM | TGI [33]: > 100 µM | GI50 [34]: > 100 µM | TGI [34]: > 100 µM | GI50 [35]: > 100 µM | TGI [35]: > 100 µM | GI50 [36]: 37.7 µM | TGI [36]: > 100 µM | GI50 [37]: > 100 µM | TGI [37]: > 100 µM | GI50 [38]: > 100 µM | TGI [38]: > 100 µM | GI50 [39]: > 100 µM | TGI [39]: > 100 µM | GI50 [40]: 23.6 µM | TGI [40]: > 100 µM | GI50 [41]: > 100 µM | TGI [41]: > 100 µM | GI50 [42]: > 100 µM | TGI [42]: > 100 µM | GI50 [43]: > 100 µM | TGI [43]: > 100 µM | GI50 [57]: > 100 µM | TGI [57]: > 100 µM | GI50 [44]: > 100 µM | TGI [44]: > 100 µM | GI50 [45]: 12.7 µM | TGI [45]: > 100 µM | GI50 [46]: > 100 µM | TGI [46]: > 100 µM | GI50 [47]: > 100 µM | TGI [47]: > 100 µM | GI50 [49]: 99.8 µM | TGI [49]: > 100 µM | GI50 [50]: 33.6 µM | TGI [50]: 78.7 µM | GI50 [51]: > 100 µM | TGI [51]: > 100 µM | GI50 [52]: > 100 µM | TGI [52]: > 100 µM | GI50 [53]: 37.4 µM | TGI [53]: > 100 µM | GI50 [54]: 98.9 µM | TGI [54]: > 100 µM
